# Entries after “also recorded” stand apart in the source; their conditions may differ.
# Assays:
# Assay type in all cases: biochemical
# PfcFRS [1] = molecular target: T1, PfcFRS (Plasmodium falciparum, UniProt Q8I246); assay: PfcFRS mode of inhibition study (malachite green); details: for 1/v (0.5 × IC50 ): inhibitor 0.5 × IC50; for 1/V (1 × IC50 ) / 1/v (1 × IC50 ): inhibitor 1 × IC50
# T1 sequence (Q8I246 1-575): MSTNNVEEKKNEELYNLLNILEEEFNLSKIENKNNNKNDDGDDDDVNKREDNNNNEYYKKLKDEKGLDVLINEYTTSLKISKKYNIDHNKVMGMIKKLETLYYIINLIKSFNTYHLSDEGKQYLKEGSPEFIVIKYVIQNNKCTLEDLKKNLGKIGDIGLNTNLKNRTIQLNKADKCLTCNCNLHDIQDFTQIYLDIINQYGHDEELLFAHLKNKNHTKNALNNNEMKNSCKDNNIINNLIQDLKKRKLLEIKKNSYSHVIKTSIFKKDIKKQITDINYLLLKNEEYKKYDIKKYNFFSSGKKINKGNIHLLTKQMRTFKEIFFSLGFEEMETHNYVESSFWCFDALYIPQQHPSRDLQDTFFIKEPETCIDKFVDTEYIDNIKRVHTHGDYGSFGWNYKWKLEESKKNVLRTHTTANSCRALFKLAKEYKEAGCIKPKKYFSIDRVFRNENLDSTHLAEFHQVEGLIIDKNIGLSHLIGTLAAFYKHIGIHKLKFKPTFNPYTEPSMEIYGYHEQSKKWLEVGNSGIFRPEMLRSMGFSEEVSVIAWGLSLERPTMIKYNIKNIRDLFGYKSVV
# T1 sequence (Q8IIW2 1-623 partner): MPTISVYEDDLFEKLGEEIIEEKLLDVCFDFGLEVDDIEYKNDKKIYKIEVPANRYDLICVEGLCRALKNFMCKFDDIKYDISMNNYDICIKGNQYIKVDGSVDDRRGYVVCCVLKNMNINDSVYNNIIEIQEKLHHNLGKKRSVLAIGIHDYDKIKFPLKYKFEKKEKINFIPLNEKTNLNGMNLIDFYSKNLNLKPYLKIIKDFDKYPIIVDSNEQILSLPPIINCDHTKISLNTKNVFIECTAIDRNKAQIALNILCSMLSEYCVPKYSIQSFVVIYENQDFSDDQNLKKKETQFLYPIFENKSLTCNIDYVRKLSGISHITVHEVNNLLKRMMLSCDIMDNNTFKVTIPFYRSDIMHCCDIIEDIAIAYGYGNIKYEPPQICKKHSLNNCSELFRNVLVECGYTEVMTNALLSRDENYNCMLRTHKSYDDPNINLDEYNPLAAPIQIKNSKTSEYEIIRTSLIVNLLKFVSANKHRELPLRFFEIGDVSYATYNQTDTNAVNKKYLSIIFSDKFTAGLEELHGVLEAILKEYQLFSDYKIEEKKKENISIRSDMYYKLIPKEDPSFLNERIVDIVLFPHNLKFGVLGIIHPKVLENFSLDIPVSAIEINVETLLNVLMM
# Experimental: (§1) These were done using malachite green assay as per earlier published reports[1],[6]. Briefly, the reaction was performed for 100 µM ATP, 50 µM L-phenylalanine and 100 nM recombinant PheRS enzymes (Pf, Pv, Hs, Pf mutant (L550V)) in a buffer containing 30 mM HEPES (pH 7.5), 150 mM, NaCl, 30 mM KCl, 50 mM, MgCl2, 1 mM DTT, and 2 U/ml E. coli inorganic pyrophosphatase (NEB) at 37 °C. Enzymatic reactions (50 μl total volume) were performed in clear, flat-bottomed, 96-well plates (Costar 96-well standard microplates). The reaction mixture was incubated for 2 h at 37 °C. The reaction was stopped by adding 12.5 μl of malachite green solution to the reaction mixture and levels of inorganic phosphate (Pi) were detected after incubation of 5 min at room temperature. Absorbance was the measured at 620 nm using a Spectramax M2 (Molecular Devices). Reactions without FRS enzyme were performed as background controls, values of which were subtracted from the reactions with enzyme. BRD1389 was added to our aminoacylation assay reaction buffer in varying concentrations ranging from 0.1 nM to 10,000 nM. The IC50 value for the data is shown for three replicates as the mean ± SD.
# To establish the mode of inhibition of BRD1389, data sets (generated using the malachite Green assay platform as described in the above enzyme inhibition assays method section) were collected by varying both the inhibitor and substrate concentrations.
# PfcFRS [2] = molecular target: T1, PfcFRS; assay: Malachite green aminoacylation enzyme inhibition assay
# Experimental: as §1
# PvcFRS = molecular target: T2, PvcFRS (Plasmodium vivax, UniProt A5K9S0); assay: as above
# T2 construct: Full-length PvcFRS was also purified according to the same protocol; vector-encoded tag of pETM11 (own knowledge: N-terminal His6 with TEV site); Ni-NTA purification; made in house; host or cells: E. coli strain B834
# T2 sequence (A5K464 whole entry): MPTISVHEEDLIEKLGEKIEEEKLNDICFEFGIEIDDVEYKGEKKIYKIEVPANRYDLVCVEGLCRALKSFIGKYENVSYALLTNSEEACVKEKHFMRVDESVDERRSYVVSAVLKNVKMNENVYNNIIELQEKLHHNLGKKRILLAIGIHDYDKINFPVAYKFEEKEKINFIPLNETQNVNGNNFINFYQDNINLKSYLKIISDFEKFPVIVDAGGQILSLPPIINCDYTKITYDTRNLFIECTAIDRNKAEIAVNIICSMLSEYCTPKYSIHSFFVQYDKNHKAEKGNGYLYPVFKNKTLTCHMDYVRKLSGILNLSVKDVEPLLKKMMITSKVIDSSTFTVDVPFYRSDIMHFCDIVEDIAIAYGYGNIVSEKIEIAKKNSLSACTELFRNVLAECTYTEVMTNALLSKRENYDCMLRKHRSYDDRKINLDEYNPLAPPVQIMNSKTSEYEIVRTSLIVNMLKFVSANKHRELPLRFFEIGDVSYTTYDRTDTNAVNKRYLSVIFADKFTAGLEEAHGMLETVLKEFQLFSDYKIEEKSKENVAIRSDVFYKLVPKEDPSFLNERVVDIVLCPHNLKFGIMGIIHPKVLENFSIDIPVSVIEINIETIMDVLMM
# T2 sequence (A5K9S0 whole entry): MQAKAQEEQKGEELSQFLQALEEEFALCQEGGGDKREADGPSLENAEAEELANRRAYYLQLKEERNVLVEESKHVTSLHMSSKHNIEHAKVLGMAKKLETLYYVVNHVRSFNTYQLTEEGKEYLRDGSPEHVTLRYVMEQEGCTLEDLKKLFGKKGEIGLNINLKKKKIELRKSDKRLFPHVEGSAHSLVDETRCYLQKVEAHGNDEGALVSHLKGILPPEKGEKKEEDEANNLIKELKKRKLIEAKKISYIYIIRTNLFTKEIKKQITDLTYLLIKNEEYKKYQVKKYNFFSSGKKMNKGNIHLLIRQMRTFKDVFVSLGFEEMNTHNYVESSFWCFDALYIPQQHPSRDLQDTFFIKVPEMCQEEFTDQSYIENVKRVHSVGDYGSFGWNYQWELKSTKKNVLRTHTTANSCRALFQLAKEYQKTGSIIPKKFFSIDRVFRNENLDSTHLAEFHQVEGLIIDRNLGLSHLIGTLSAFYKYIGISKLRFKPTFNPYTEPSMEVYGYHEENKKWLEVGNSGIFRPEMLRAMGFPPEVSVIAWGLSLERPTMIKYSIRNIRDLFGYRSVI
# Experimental: as §1
# HscFRS = HscFRS (Homo sapiens, UniProt Q9Y285); assay: as above
# Chain of HscFRS (Q9NSD9 whole entry): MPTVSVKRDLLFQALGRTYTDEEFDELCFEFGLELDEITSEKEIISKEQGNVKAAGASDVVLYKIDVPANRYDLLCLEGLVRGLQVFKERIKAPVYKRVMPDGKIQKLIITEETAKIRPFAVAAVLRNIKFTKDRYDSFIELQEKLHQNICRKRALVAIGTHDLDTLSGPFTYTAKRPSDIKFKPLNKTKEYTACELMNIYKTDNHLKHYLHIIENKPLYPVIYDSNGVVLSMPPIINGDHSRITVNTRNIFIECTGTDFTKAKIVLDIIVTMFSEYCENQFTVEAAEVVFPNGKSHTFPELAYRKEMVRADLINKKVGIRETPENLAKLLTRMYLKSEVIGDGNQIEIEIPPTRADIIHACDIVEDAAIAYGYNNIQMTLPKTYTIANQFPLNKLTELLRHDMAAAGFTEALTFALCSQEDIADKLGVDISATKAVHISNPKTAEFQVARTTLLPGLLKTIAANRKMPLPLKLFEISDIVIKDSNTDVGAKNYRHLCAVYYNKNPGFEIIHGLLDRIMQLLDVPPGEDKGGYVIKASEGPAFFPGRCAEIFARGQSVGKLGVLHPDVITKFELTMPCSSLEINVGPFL
# Chain of HscFRS (Q9Y285 whole entry): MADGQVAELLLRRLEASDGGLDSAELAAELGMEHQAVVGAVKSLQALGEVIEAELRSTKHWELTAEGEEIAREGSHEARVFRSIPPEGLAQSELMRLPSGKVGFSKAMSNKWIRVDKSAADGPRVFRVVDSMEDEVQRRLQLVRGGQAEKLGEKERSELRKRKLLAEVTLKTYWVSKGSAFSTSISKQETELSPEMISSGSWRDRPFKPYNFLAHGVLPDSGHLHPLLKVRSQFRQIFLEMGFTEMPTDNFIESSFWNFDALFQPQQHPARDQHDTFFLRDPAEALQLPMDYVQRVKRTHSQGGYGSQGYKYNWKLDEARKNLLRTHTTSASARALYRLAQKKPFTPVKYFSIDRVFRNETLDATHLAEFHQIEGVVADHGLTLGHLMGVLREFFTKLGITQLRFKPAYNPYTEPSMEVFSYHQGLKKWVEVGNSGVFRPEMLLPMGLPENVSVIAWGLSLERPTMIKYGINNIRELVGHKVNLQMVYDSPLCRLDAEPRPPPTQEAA
# Experimental: as §1
# [3] = ATP 15.6 uM, saturating L-Phe 1000 μM
# [4] = ATP 31.25 uM, saturating L-Phe 1000 μM
# [5] = ATP 62.5 uM, saturating L-Phe 1000 μM
# [6] = ATP 125 uM, saturating L-Phe 1000 μM
# [7] = ATP 250 uM, saturating L-Phe 1000 μM
# [8] = ATP 500 uM, saturating L-Phe 1000 μM
# [9] = L-Phe 0.015625 mM, saturating ATP 500 μM
# [10] = L-Phe 0.031 mM, saturating ATP 500 μM
# [11] = L-Phe 0.0625 mM, saturating ATP 500 μM
# [12] = L-Phe 0.125 mM, saturating ATP 500 μM
# [13] = L-Phe 0.25 mM, saturating ATP 500 μM
# [14] = L-Phe 0.5 mM, saturating ATP 500 μM
# [15] = L-Phe 1 mM, saturating ATP 500 μM
# [16] = 2 h, read-out: % Enzyme Activity
smiles,measurement,setting,value
COC[C@@H]1[C@H](c2ccc(C#Cc3ccccc3)cc2)[C@@H]2CN(C(=O)Nc3ccc(OC4CC4)cc3)C[C@@H](O)[C@@H](O)CN12 [BRD1389],Ki,"PfcFRS [1]; ATP varied, L-Phe saturating, non-competitive inhibition model",10 ± 5 nM
same,Ki,"PfcFRS [1]; L-Phe varied, ATP constant, global competitive inhibition model",6 ± 2 nM
same,Mode of inhibition with respect to ATP,"PfcFRS [1]; PfcFRS, ATP varied at saturating L-Phe",non-competitive inhibition; also recorded: likely a non-competitive inhibitor
same,Mode of inhibition with respect to L-Phe,"PfcFRS [1]; PfcFRS, L-Phe varied at saturating ATP",competitive inhibition; also recorded: competitive inhibitor
same,1/v (0.5 × IC50 ),PfcFRS [1]; [3],50.7634
same,1/v (0.5 × IC50 ),PfcFRS [1]; [4],35.2611
same,1/v (0.5 × IC50 ),PfcFRS [1]; [5],25.2226
same,1/v (0.5 × IC50 ),PfcFRS [1]; [6],18.8398
same,1/v (0.5 × IC50 ),PfcFRS [1]; [7],16
same,1/v (0.5 × IC50 ),PfcFRS [1]; [8],13.77
same,1/v (0.5 × IC50 ),PfcFRS [1]; [9],19.05
same,1/v (0.5 × IC50 ),PfcFRS [1]; [10],12.5
same,1/v (0.5 × IC50 ),PfcFRS [1]; [11],10
same,1/v (0.5 × IC50 ),PfcFRS [1]; [12],8.3
same,1/v (0.5 × IC50 ),PfcFRS [1]; [13],7.2
same,1/v (0.5 × IC50 ),PfcFRS [1]; [14],6.5
same,1/v (0.5 × IC50 ),PfcFRS [1]; [15],6.2
same,1/V (1 × IC50 ),PfcFRS [1]; [3],66.6667
same,1/V (1 × IC50 ),PfcFRS [1]; [4],44.4444
same,1/V (1 × IC50 ),PfcFRS [1]; [5],40.1698
same,1/V (1 × IC50 ),PfcFRS [1]; [6],25.8
same,1/V (1 × IC50 ),PfcFRS [1]; [7],20
same,1/V (1 × IC50 ),PfcFRS [1]; [8],13.7741
same,1/v (1 × IC50 ),PfcFRS [1]; [9],30
same,1/v (1 × IC50 ),PfcFRS [1]; [10],18.03
same,1/v (1 × IC50 ),PfcFRS [1]; [11],12
same,1/v (1 × IC50 ),PfcFRS [1]; [12],9
same,1/v (1 × IC50 ),PfcFRS [1]; [13],8
same,1/v (1 × IC50 ),PfcFRS [1]; [14],7.2
same,1/v (1 × IC50 ),PfcFRS [1]; [15],7
same,remaining activity at 1 pM,PfcFRS [2]; [16],100%
same,remaining activity at 0.0001 µM,"PfcFRS [2]; 2 h, PfcFRS, BRD1389 0.0001 uM",98.4%
same,remaining activity at 0.001 µM,"PfcFRS [2]; 2 h, PfcFRS, BRD1389 0.001 uM",85.2%
same,remaining activity at 0.01 µM,"PfcFRS [2]; 2 h, PfcFRS, BRD1389 0.01 uM",46.7%
same,remaining activity at 0.1 µM,"PfcFRS [2]; 2 h, PfcFRS, BRD1389 0.1 uM",9.72%
same,remaining activity at 1 µM,"PfcFRS [2]; 2 h, PfcFRS, BRD1389 1 uM",4.61%
same,remaining activity at 10 µM,"PfcFRS [2]; 2 h, PfcFRS, BRD1389 10 uM",1.17%
same,remaining activity at 100 µM,"PfcFRS [2]; 2 h, PfcFRS, BRD1389 100 uM",0%
same,IC50,PfcFRS [2]; Pf cFRS aminoacylation activity,12 ± 0.8 nM
same,remaining activity at 1 pM,PvcFRS; [16],100%
same,IC50,PvcFRS; Pv cFRS aminoacylation activity,25 ± 1 nM
same,remaining activity at 0.0001 µM,"PvcFRS; PvcFRS, BRD1389 0.0001 uM",95.4%
same,remaining activity at 0.001 µM,"PvcFRS; PvcFRS, BRD1389 0.001 uM",86.2%
same,remaining activity at 0.01 µM,"PvcFRS; PvcFRS, BRD1389 0.01 uM",60.7%
same,remaining activity at 0.1 µM,"PvcFRS; PvcFRS, BRD1389 0.1 uM",20.7%
same,remaining activity at 1 µM,"PvcFRS; PvcFRS, BRD1389 1 uM",8.61%
same,remaining activity at 10 µM,"PvcFRS; PvcFRS, BRD1389 10 uM",2.17%
same,remaining activity at 100 µM,"PvcFRS; PvcFRS, BRD1389 100 uM",0%
same,IC50,HscFRS; Hs cFRS aminoacylation activity,12000 nM
same,remaining activity at 0.0001 µM,"HscFRS; HscFRS, BRD1389 0.0001 uM",99.6%
same,remaining activity at 0.001 µM,"HscFRS; HscFRS, BRD1389 0.001 uM",100%
same,remaining activity at 0.01 µM,"HscFRS; HscFRS, BRD1389 0.01 uM",99.7%
same,remaining activity at 0.1 µM,"HscFRS; HscFRS, BRD1389 0.1 uM",90.2%
same,remaining activity at 1 µM,"HscFRS; HscFRS, BRD1389 1 uM",85%
same,remaining activity at 10 µM,"HscFRS; HscFRS, BRD1389 10 uM",49.5%
same,remaining activity at 100 µM,"HscFRS; HscFRS, BRD1389 100 uM",20%

# Reference: article PMC7803973, “Structural basis of malaria parasite phenylalanine tRNA-synthetase inhibition by bicyclic azetidines” (Nature Communications, 2021)
